Experimental findings from patent US6713504B2, “Antifungal molecule 2-(3,4-dimethyl-2,5-dihydro-1H-pyrrol-2-yl)-1-methylethyl pentanoate” (Council of Scientific & Industrial Research, priority 2002, dated 2004) are described below.

Each structure is given as a SMILES string. ≈ marks a conversion by molar mass, not a printed value.

Series [1] has as its system A. niger. Nature of the series: Disc diffusion assay. It is filed as cell-based. The method, then: (§1) Pathogenic strains of fungi were obtained from the Mycology Department of Vallabhbhai Patel Chest Institute, Delhi. All the strains were grown on Sabouraud dextrose agar at 37° C. The conidia form these cultures were harvested and suspended in Sabouraud maltose broth. The number of conidia was counted using haemocytometer and their number in the suspension was adjusted to as per need of the experiment.
(§2) The disc diffusion test was performed as per described in the section of details of invention. Amphotericin B 1.25 μg/disc was used in assay as positive control standard drug. Additional discs impregnated with equivalent amount of solvent were also used in the assay as negative controls (FIG. 5).
In general terms: A growth-free zone around the sample is the usual read-out of agar diffusion tests.

The test system of series [2] is A. flavus. The series is described as follows: Disc diffusion assay. The format is cell-based. To be noted: concentration developing zone of inhibition of 6.0-mm diameter. The method, then:
as §1, §2

Series [3] has as its system Aspergillus species. Nature of the series: Spore germination inhibition assay. The format is cell-based. To be noted: 10 hrs incubation. The method, then: as §1
The modified spore germination inhibition assay was performed as described earlier (Sureder P. and Janaiah C., 1987, Ind. J. Expt. Biol., 25, 233-234). The fungal species were grown on Sabouraud dextrose agar plates at 37° C. for 96 h. […] The conidia were counted and their number in the suspension was adjusted to 1×10^4 per ml. The standard drug Amphotericin B and test samples were initially dissolved in minimal quantity of dimethylsulfoxide (DMSO) and then diluted with Sabouraud dextrose medium. […] The number of germinated and non-germinated spores was counted. The percent spore germination inhibition (PSGI) was calculated using following formula [formula]
Antifungal Activity of Pure Compound by Spore Germination Inhibition Assay The spore germination inhibition assay was performed to evaluate the activity of the compound. […] The number of germinated and non-germinated spores was counted and the percent spore germination inhibition (PSGI) was calculated. […]

Series [4] relates to A. fumigatus infection. Nature of the series: Quantification of colony forming units in organs of infected mice. It is filed as in vivo, Balb/C mice. The text has this:
In vivo efficacy of the compound against A. fumigatus infection was studied in the Balb/C mice of 6-8 weak of age of either sex, weighing 15-20 g each. The mice model of aspergillosis described by Dixon et al (1989), was used to study the effects of compound on in vivo infection of A. fumigatus.
The animals were housed in the micro-barrier cages on sterile bedding and fed ad libitum water and food. The mice were divided into 6 groups and each group contained 8-10 animals. The mice were infected experimentally with A. fumigatus. Three days prior to infection with conidia, mice were injected subcutaneously with 3 doses (250.0 mg/kg/day) of cortisone acetate in 400.0 μl of PBS. On the infection day, each mouse received 2×10^7 conidia by nasal instillation of a single droplet of conidial suspension. The animals of this model developed invasive aspergillosis and all the infected animals died within 4-6 days.
The mice were kept under constant watch and those getting moribund, dying or survived up to 10 days were sacrificed. The autopsy was performed on the mice who had died to remove their organs for quantification of colony forming units (CFU). The lungs, livers and kidneys of the mice were removed aseptically, placed in sterile PBS (pH 7.2) and homogenized with teflon pestle mortar. The CFU in the animals were determined by plating 10 fold dilutions of organ homogenates on Sabouraud dextrose agar containing 0.05% triton X-100. The triton X-100 limited the colony size and thus greatly facilitated colony counting (Frosco, 1992). After an incubation for 48 h at 37° C., colonies were counted and results were expressed as CFU per organ.
The fungal burden in the organs of the animals, which died or became moribund during study or those survived up to 10th day, was determined. The lungs, livers and kidneys of the animals were isolated, homogenized and the homogenate was used to culture the pathogen on Sabouraud dextrose agar plates. The colonies of the fungus were counted and expressed as colony forming units (CFU)/organ.

Series [5] relates to RAW cells. The series is described as follows: In vitro cell cytotoxicity by MTT assay. It is filed as cell-based. The method, then:
(§3) The stock culture of RAW cells was obtained from National Facility for Cell and Tissue Culture, Pune.
(§4) The stock solution of the compound was prepared by dissolving 2.5 mg of the purified compound in minimum amount of DMSO and then diluted with double distilled water to make the final volume 1.0-ml.
(§5) The cells were harvested at the log phase of growth confluency from the flask. The homogeneous suspension of cells was prepared in 2.0 ml of culture medium. The number of cells in the suspension was counted using a hemocytometer and the cell suspension was diluted in such a way so as to obtain 5×10^7 viable cells per ml. The viability of the cells was checked with trypan blue dye exclusion test. The cytotoxicity assay was performed in 96 wells flat bottom tissue culture plates (Nunc Nunclon). The cells (5×10^6) in 100.0 μl volume were seeded into each well. The plate was incubated at 37° C. in atmosphere of 5% (v/v) CO2 for 8 h. The wells were examined microscopically for the formation of monolayer of the cells. […] In +ve control wells, a known cytotoxic protein obtained from A. fumigatus, was used. The ZnSO4 (8.0 mg/L) was used as another +ve toxic material in another set of wells. In negative control wells equivalent amount of the solvent was used. The duplicate wells were used for each concentration of the test compound. The plates were incubated at 37° C. in 5% (v/v) CO2 incubator overnight (12 h). The medium along with floating dead cells from the wells was removed by inverting the plate. Thus, only the live cells sticking to the surface of plate were left in the wells. […] After adding the dye to the wells, the plate was kept at 37° C. in 5% CO2 for 1 h. The tissue culture plate was removed from the incubator and all the dye was aspirated. Only live cells took up the dye. The cells were lysed by adding 100.0 μl of isopropanol-HCl to the wells. After lysis of the cells, the plates were read at 540 nm using plate reader (Spectra Max 190, Molecular Device).
(§6) The toxicity of the compound was expressed as percentage with respect to that obtained in −ve control sample. The percent cytotoxicity was calculated using the formula given below. [formula]
(§7) The percent cytotoxicity was plotted against log concentration of the compound to find out concentration which was cytotoxic to 50% of the cells (CT50).
On the technique in general: Formazan colour is commonly taken as a measure of viable cells.

A short description of series [6]: In vitro cell cytotoxicity by MTT assay. It is filed as cell-based. The conditions noted are these: mouse; 1250.0 μg/ml; RAW cells; MTT; read-out: percent cytotoxicity. The method, then:
as §3, §4, §5, §6, §7

A word on the zone of inhibition: it is the size of the clear area around the sample on an inoculated plate. With `CCCCC(=O)OC(C)CC1NCC(C)=C1C` (stereo not drawn) [PC-1, 2-(3,4-dimethyl-2,5-dihydro-1H-pyrrol-2-yl)-1-methylethyl pentanoate], the zone of inhibition at 20 µg/disc in series [1] (Aspergillus niger, 20.0 μg/disc, 48 hrs, read-out: Diameter of zone of inhibition) was determined as 9.4 mm. Also, the “MIC by disc diffusion assay” value in series [1] (concentration developing zone of inhibition of 6.0-mm diameter) and in series [2] was 5 μg/disc in each case. The “MIC by percent spore germination inhibition” value in series [3] was determined as 87.5 µg/mL (≈ 366 µM). Also, the “effect on colony counts in lung as compared to controls” value in series [4] (400 mg/kg body weight, p<0.001) is reported as “reduced the colony counts significantly”. For the same compound, the “effect on number of CFUs in kidneys” value in series [4] (100.0 to 400.0 mg/kg body weight) was “significant reduction”. Moreover, in series [4] (doses of 25.0 and 50.0 mg/kg body weight), the “effect on the CFUs in the lung tissue” value is given as “did not have any effect”. Also, the “effect on CFUs in liver” value in series [4] (liver) is “very less effect”. Moreover, the “concentration completely non-toxic to the cells” value in series [5] (RAW cells, MTT) is listed as “up to 312.5 μg/ml”. Further, the “CT50 (dose cytotoxic to 50% of the cells)” value in series [5] (RAW cells, MTT, 12 h) worked out at 889.2 µg/mL. Further, in series [5] (comparison with Amphotericin B), the “less cytotoxic than the standard antifungal drug Amphotericin B” value was 57.8 times. The cytotoxicity at 12 h, 1250 μg/ml in series [6] amounted to 76%.
